The text below walks through data of US20070088064A1, “PHARMACEUTICAL COMPOSITION CONTAINING BICYCLIC TYPE COMPOUNDS” (SmithKline Beecham plc, priority 1992, published 2007).

The test system of this test is electrically-induced seizures. Nature of the test: Maximal electroshock seizure (MES) threshold test. The test is classed as in vivo. The settings on record: 10 mg/kg p.o., mice. As for the experimental part: The maximal electroshock seizure (MES) threshold test in rodents is particularly sensitive for detecting potential anticonvulsant properties^1. In this model, anticonvulsant agents elevate the threshold to electrically—induced seizures whilst proconvulsants lower the seizure threshold.
Mice (male, Charles River, U.K. CD-1 strain, 25-30 g) are randomly assigned to groups of 10-20 and dosed orally or intraperitoneally at a dose volume of 10 ml/kg with various doses of compound (0.3-300 mg/kg) or vehicle. Mice are then subjected at 30 or 60 min post dose to a single electroshock (0.1 sec, 50 Hz, sine wave form) administered via corneal electrodes. The mean current and standard error required to induce a tonic seizure in 50% (CC50) of the mice in a particular treatment group is determined by the ‘up and down’ method of Dixon and Mood (1948)^2. Stastical comparisons between vehicle—and drug—treated groups are made using the method of Litchfield and Wilcoxon (1949)^3.
In control animals the CC50 is usually 14-18 mA. […] If a tonic convulsion does occur, then the current is decreased, and so on until all the animals in the group have been tested.
The percentage increase or decrease in CC50 for each group compared to the control is calculated. […]
Background: In the maximal electroshock model the usual endpoint is tonic extension of the hind limbs.

Consider `CCc1ccc2c(c1)[C@H](NC(=O)c1ccc(F)cc1)[C@H](O)C(C)(C)O2` (relative stereo) [Example 7, cis-6-Ethyl-4S-(4-fluorobenzoylamino)-3,4-dihydro-2,2-dimethyl-2H-1-benzopyran-3S-ol], for which the “enhanced seizure threshold (percentage increase in CC50 compared to control)” value was 105%.
As for `CC(=O)c1ccc2c(c1)[C@H](NC(=O)c1ccc(F)cc1)[C@H](O)C(C)(C)O2` (relative stereo) [Example 3, cis-6-Acetyl-4S-(4-fluorobenzoylamino)-3,4-dihydro-2,2-dimethyl-2H-1-benzopyran-3S-ol], the “enhanced seizure threshold (percentage increase in CC50 compared to control)” value came out at 84%.
